≈ marks a conversion by molar mass, not a printed value. Each block holds one compound with its values, some of them ahead of it.
Legend:
[1] = target: chitinase enzyme extracted from Trichoderma viride; assay: Chitinase inhibition assay (NP-GlcNAc substrate); format: biochemical
Protocol: Chitinase inhibition assays were conducted against an example of the GH18 family of chitinases, i.e the chitinase enzyme extracted from Trichoderma viride. This enzyme has an high degree of identity compared to chitinase 4 of Candida albicans, and is commercially available from Sigma-Aldrich (catalogue ID: C8241).
The substrate used was the NP-GlcNAc (Sigma-Aldrich, catalogue ID: N9376) dissolved in MES 50 mM at pH6.0; the final concentration was 250 μM. The enzyme was resuspended at 0.11 mg/ml in MES 50 mM at pH 6.0, with a final concentration for the assay of 73 nM diluting with MES 50 mM and BSA 20 μg/ml at pH 6.0. A stock solution of the inhibitors was prepared at 50 mM in DMSO 100%.
The mixture with the inhibitor at various concentrations and the enzyme was prepared directly into the reading plate and left to incubate at room temperature for 20 minutes or three hours. At the end of the incubation times, the substrate was added and the reading was conducted by recording the values up to a maximum time of 10 minutes. The substrate concentration was measured by reading UV absorption at 300 nm (εM^300: 11100), while, the product of hydrolysis were measured at 400 nm (ΔεM^400: 2120). Both IC50 and Ki can be calculated.

C. albicans = assay: Antimicrobial susceptibility testing (microdilution MIC90), C. albicans strains; format: cell-based; conditions: Candida albicans; C. albicans (22 strains tested); 24 h, visually and spectrophotometrically
Protocol: (§1) Sterile plastic microtitration plates containing flat-bottomed wells were used. The plates contained serial dilution of the antifungal agents with a volume of assay medium of 100 μL/well. Two drug-free medium wells were used as sterility and growth controls. The trays were inoculated with 100 μL/well of the final inoculum, with the exception of sterility control wells. […] The microtitration plates were incubated at 37° C. for 24 h. The minimal inhibitory concentrations (MICs) were determined at 24 h both visually and spectrophotometrically measuring the turbidity at 595 nm with a Varian model 1475 spectrophotometer. Results of biological tests are shown in Table 2, biological data are reported as MIC90 that is the minimum concentration required to inhibit the growth of at least the 90% of the strains tested for each species.

[2] = test system: C. albicans fluconazole resistant strains; assay: microbe, parasite or virus in culture; format: cell-based; conditions: Candida albicans, 24 h
C. krusei = assay: Antimicrobial susceptibility testing (microdilution MIC90), C. krusei strains; format: cell-based, Candida krusei; conditions: Pichia kudriavzevii; C. krusei (13 strains tested); 24 h; read-out: MIC90
Protocol: as §1

C. parapsilosis = assay: Antimicrobial susceptibility testing (microdilution MIC90), C. parapsilosis strains; format: cell-based, Candida parapsilosis; conditions: Lodderomyces parapsilosis; C. parapsilosis (24 strains tested); 24 h
Protocol: as §1

C. guilliermondii = assay: Antimicrobial susceptibility testing (microdilution MIC90), C. guilliermondii strains; format: cell-based, Candida guilliermondii; conditions: Meyerozyma guilliermondii; C. guilliermondii (10 strains tested); 24 h
Protocol: as §1

C. glabrata = assay: Antimicrobial susceptibility testing (microdilution MIC90), C. glabrata strains; format: cell-based, Candida glabrata; conditions: Nakaseomyces glabratus; C. glabrata (26 strains tested); 24 h
Protocol: as §1

[3] = test system: C. glabrata fluconazole resistant strains; assay: microbe, parasite or virus in culture; format: cell-based, Candida glabrata; conditions: Nakaseomyces glabratus, 24 h
C. kefyr = assay: Antimicrobial susceptibility testing (microdilution MIC90), C. kefyr strains; format: cell-based, Candida kefyr; conditions: Kluyveromyces marxianus; C. kefyr (10 strains tested); 24 h
Protocol: as §1

C. tropicalis = assay: Antimicrobial susceptibility testing (microdilution MIC90), C. tropicalis strains; format: cell-based; conditions: Candida tropicalis; C. tropicalis (11 strains tested); 24 h
Protocol: as §1

[4] = Enz.-inhib. incubation time 20 min
[5] = Enz.-inhib. incubation time 3 h

IC50 [1, 4]: 252 µM
Ki [1, 4]: 81.4 µM
IC50 [1, 5]: 130 µM
Ki [1, 5]: 42 µM
SMILES: N=C(NCCCCCCCCN1CCCCCCCCNC(=N)NC1=O)NCC1CC1 [Compound 34, 1-(cyclopropylmethyl)-3-[8-(4-imino-2-oxo-1,3,5-triazacyclotridec-1-yl)octyl]guanidine]

IC50 [1, 4]: 185 µM
Ki [1, 4]: 59.6 µM
IC50 [1, 5]: 157 µM
Ki [1, 5]: 50.8 µM
SMILES: C/C=C/CNC(=N)NCCCCCCCCN1CCCCCCCCNC(=N)NC1=O [Compound 35, 1-[(E)-but-2-enyl]-3-[8-(4-imino-2-oxo-1,3,5-triazacyclotridec-1-yl)octyl]guanidine]

IC50 [1, 5]: 111 µM
Ki [1, 5]: 35.8 µM
SMILES: C/C=C/CNC(=N)NCCCCCCN1CCCCCCCCNC(=N)NC1=O [Compound 36, 1-[(E)-but-2-enyl]-3-[6-(4-imino-2-oxo-1,3,5-triazacyclotridec-1-yl)hexyl]guanidine]

IC50 [1, 4]: 276 µM
Ki [1, 4]: 81.4 µM
IC50 [1, 5]: 108 µM
Ki [1, 5]: 34.8 µM
SMILES: C=C(C)CNC(=N)NCCCCCCN1CCCCCCCCNC(=N)NC1=O [Compound 37, 1-[6-(4-imino-2-oxo-1,3,5-triazacyclotridec-1-yl)hexyl]-3-(2-methylprop-2-enyl)guanidine]

IC50 [1, 4]: 508 µM
Ki [1, 4]: 164 µM
IC50 [1, 5]: 140 µM
Ki [1, 5]: 45.3 µM
SMILES: CCNC(=N)NCCCCCCN1CCCCCCCCNC(=N)NC1=O [Compound 38, 1-ethyl-3-[6-(4-imino-2-oxo-1,3,5-triazacyclotridec-1-yl)hexyl]guanidine]

IC50 [1, 4]: 170 µM
Ki [1, 4]: 55 µM
IC50 [1, 5]: 97 µM
Ki [1, 5]: 31.3 µM
SMILES: C#CCNC(=N)NCCCCCCN1CCCCCCCCNC(=N)NC1=O [Compound 39, 1-[6-(4-imino-2-oxo-1,3,5-triazacyclotridec-1-yl)hexyl]-3-prop-2-ynylguanidine]

SMILES: C/C=C/CNC(=N)NCCCCCCCCN1CCCCOc2ccccc2CNC(=N)NC1=O [Example 16, 1-[(E)-but-2-enyl]-3-[8-(4-imino-6-oxo-12-oxa-3,5,7-triazabicyclo[11.4.0]heptadeca-1(13),14,16-trien-7-yl)octyl]guanidine]
MIC90 (C. albicans): 16 µg/mL (≈ 32.9 µM)
MIC ([2]; strain DSY284, ERG11 Mutation, mean of three measurements): 16 µg/mL (≈ 32.9 µM)
MIC ([2]; strain DSY289, ERG11 Mutation (2)): 8 µg/mL (≈ 16.5 µM)
MIC ([2]; strain DSY291, ERG11 Mutation (2)): 8 µg/mL (≈ 16.5 µM)
MIC ([2]; strain DSY292, ERG11 Mutation (3)): 16 µg/mL (≈ 32.9 µM)
MIC ([2]; strain DSY296, ERG11 Mutation): 16 µg/mL (≈ 32.9 µM)
MIC ([2]; strain DSY348, ERG11 Mutation): 8 µg/mL (≈ 16.5 µM)
MIC ([2]; strain DSY732, ↑CDR1-CDR2): 8 µg/mL (≈ 16.5 µM)
MIC ([2]; strain DSY735, ↑CDR1-CDR2): 8 µg/mL (≈ 16.5 µM)
MIC ([2]; strain DSY750, ↑MDR1): 16 µg/mL (≈ 32.9 µM)
MIC ([2]; strain DSY751, ↑MDR1, ERG11 Mutation): 16 µg/mL (≈ 32.9 µM)
MIC ([2]; strain DSY775, ERG11 Mutation): 16 µg/mL (≈ 32.9 µM)
MIC ([2]; strain DSY2323, ↑CDR2-MDR1): 8 µg/mL (≈ 16.5 µM)
MIC90 (C. krusei): 32 µg/mL (≈ 65.9 µM)
MIC90 (C. parapsilosis): 8 µg/mL (≈ 16.5 µM)
MIC90 (C. guilliermondii): 16 µg/mL (≈ 32.9 µM)
MIC90 (C. glabrata): 64 µg/mL (≈ 132 µM)
MIC ([3]; strain DSY530, ↑CDR1): 64 µg/mL (≈ 132 µM)
MIC ([3]; strain DSY754, ↑CDR1): 64 µg/mL (≈ 132 µM)
MIC ([3]; strain DSY756, ↑CDR1-CDR2-SNQ2): 64 µg/mL (≈ 132 µM)
MIC ([3]; strain DSY2254, ↑CDR1-CDR2): 64 µg/mL (≈ 132 µM)
MIC ([3]; strain DSY2271, ↑CDR2): 64 µg/mL (≈ 132 µM)
MIC90 (C. kefyr): 4 µg/mL (≈ 8.24 µM)
MIC90 (C. tropicalis): 8 µg/mL (≈ 16.5 µM)

— patent US10071975B2, “Macrocyclic amidinourea derivatives, methods of preparation and uses thereof as chitinase inhibitors” (CYGNET BIOSCIENCES B.V., priority 2013, dated 2018)
